According to patent US5962533A, “Hydroxy polyamines” (priority 1996, dated 1999):
Where two headings read alike, the source gives them in different places.

Experiments:
[1] = test system: polyamine transport apparatus; experiment: Competition with radiolabeled spermidine for uptake into L1210 cells (Ki); assay type: cell-based, Murine
Method: The same cell line was utilized to evaluate the tetraamines's competition with radiolabeled spermidine for the polyamine uptake apparatus (Ki). The Ki values here are the concentrations of drugs required to inhibit the uptake of radioactive spermidine transport by 50% (Table 1).
Uptake Determinations. The polyamine derivatives were studied for their ability to compete with [^3 H]SPD or [^14 C]SPD for uptake into L1210 leukemia cells in vitro. Cell suspensions were incubated in 1 ml of RPMI-1640 containing 1, 2, 4, 6, 8 and 10 μm radiolabeled SPD alone or with the additional presence of 10, 25 and 50 μm polyamine analogue for 20 minutes at 37° C. At the end of the incubation period, tubes were centrifuged at 900 g for 5 minutes at 0-4° C. The pellet was washed twice with 5 ml of cold RPMI-1640 containing 1 mm SPD, dissolved in 200 μl of 1N NaOH at 60° C. for 1 hour, and neutralized with 1N HCl. The material was transferred to a vial for scintillation counting.

[2] = Protonation state at physiological pH assumed from measured pKa values; assay type: physicochemical; settings: physiological pH of 7.2
Method: All of the non-aromatic, non-trifluoroethylated tetraamines are largely in the form of the tetracation at the physiological pH of 7.2. The spermine analogues (13-16 and 34) and the homospermine analogues and homologues (18-26, 29 and 31-33) should be 85 and 97%, respectively, in the form of the tetracations. The norspermine analogues (9-12) should be at least 74% in the form of the tetracations. […] Thus, the calculation of atomic charges and conformational search of these analogues were carried out based on the anticipated protonated structures.

[3] = test system: castor oil-induced diarrhea; experiment: Castor oil-induced diarrhea; assay type: in vivo, rat; settings: subcutaneous injection 30 minutes before castor oil 5 ml/kg, rat
Excerpt: Castor Oil-Induced Diarrhea. Male Sprague-Dawley rats (350-400 g) were fasted overnight in hanging wire cages and allowed free access to water.

[4] = tetraamine analogues, L1210 cells, radiolabeled spermidine uptake, read-out: Ki, actual (Table 1)
[5] = triamine analogues, bioassay results not in model data set, read-out: Ki, Actual (Table 2)

SMILES | Ki [1, 4] [µM] | other results
CCCNCCCNCCCCNCCCNCCC [DPSPM] | 2.3 | 
CC(C)(C)NCCCCNCCCCNCCCCNC(C)(C)C [DTBHSPM] | 56 | 
CCNCCCCNCCCCNCCCCNC(C)(C)C [ETBHSPM] | 3 | 
FC(F)(F)CNCCCNCCCCNCCCNCC(F)(F)F [FDESPM, N^1,N^12-bis(2,2,2-trifluoroethyl)spermine] | 285 | protonation state [2]: almost exclusively in the form of the internal dication
NCCCCNCCCCN [HSPD] |  | Ki [1, 5]: 3.5 µM
NCCCCNCCCCNCCCCN [HSPM, homospermine] |  | stool output / diarrhea during 6 hour assay (FIG. 8) [3]: became diarrheal during the 6 hour assay
CCNCCCCNCCCCNCCCCN [MEHSPM, N^1 -ethylhomospermine] | 1.1 | 
CCNCCCNCCCNCCCN [MENSPM, N^1 -ethylnorspermine] | 7.7 | 
NCCCNCCCN [NSPD, norspermidine] |  | Ki [1, 5]: 8.4 µM
CCNCCCNCCCCN [N^1 -MESPD] |  | Ki [1, 5]: 8.6 µM
CCNCCCCNCCCN [N^8 -MESPD] |  | Ki [1, 5]: 7 µM
C(CCNC1CCNCC1)CNC1CCNCC1 [PIP(3,4,3)] | 60.5 | 
C(CCNCC1CCNCC1)CNCC1CCNCC1 [PIP(4,4,4)] | 4.9 | 
C(CCNCCC1CCNCC1)CNCCC1CCNCC1 [PIP(5,4,5)] | 18.1 | 
c1cc(NCCCNc2ccncc2)ccn1 [PYR(3,3,3)] | > 500 | protonation state [2]: terminal dication
c1cc(CNCCCCNCc2ccncc2)ccn1 [PYR(4,4,4)] | > 500 | protonation state [2]: almost exclusively in the form of the internal dication
